Test [1] addresses Serine/threonine-protein kinase VRK2 (Homo sapiens) (UniProt Q86Y07).
Test [2] deals with Serine/threonine-protein kinase Chk2 (Homo sapiens, UniProt O96017).
Test [3] concerns the target Serine/threonine-protein kinase 26 (Homo sapiens) (UniProt Q9P289).
For test [4], the target named is Serine/threonine-protein kinase PLK1 (Homo sapiens) (UniProt P53350).
In test [5] the target is Serine/threonine-protein kinase PAK 6 (Homo sapiens) (UniProt Q9NQU5).
For test [6], the target named is Serine/threonine-protein kinase RIO2 (Homo sapiens) (UniProt Q9BVS4).
Test [7] deals with Serine/threonine-protein kinase OSR1 (Homo sapiens) (UniProt O95747).
The target of test [8] is Dual specificity protein kinase CLK2 (Homo sapiens) (UniProt P49760).
Test [9] concerns the target Serine/threonine-protein kinase Nek6 (Homo sapiens) (UniProt Q9HC98).
Test [10] addresses Death-associated protein kinase 3 (Homo sapiens) (UniProt O43293).
Test [11] deals with Calcium/calmodulin-dependent protein kinase type II subunit alpha (Homo sapiens) (UniProt Q9UQM7).
Test [12] deals with Serine/threonine-protein kinase pim-1 (Homo sapiens) (UniProt P11309).
Test [13] concerns the target T1, Mitogen-activated protein kinase kinase kinase 5 (Homo sapiens) (UniProt Q99683).
T1 sequence (whole entry): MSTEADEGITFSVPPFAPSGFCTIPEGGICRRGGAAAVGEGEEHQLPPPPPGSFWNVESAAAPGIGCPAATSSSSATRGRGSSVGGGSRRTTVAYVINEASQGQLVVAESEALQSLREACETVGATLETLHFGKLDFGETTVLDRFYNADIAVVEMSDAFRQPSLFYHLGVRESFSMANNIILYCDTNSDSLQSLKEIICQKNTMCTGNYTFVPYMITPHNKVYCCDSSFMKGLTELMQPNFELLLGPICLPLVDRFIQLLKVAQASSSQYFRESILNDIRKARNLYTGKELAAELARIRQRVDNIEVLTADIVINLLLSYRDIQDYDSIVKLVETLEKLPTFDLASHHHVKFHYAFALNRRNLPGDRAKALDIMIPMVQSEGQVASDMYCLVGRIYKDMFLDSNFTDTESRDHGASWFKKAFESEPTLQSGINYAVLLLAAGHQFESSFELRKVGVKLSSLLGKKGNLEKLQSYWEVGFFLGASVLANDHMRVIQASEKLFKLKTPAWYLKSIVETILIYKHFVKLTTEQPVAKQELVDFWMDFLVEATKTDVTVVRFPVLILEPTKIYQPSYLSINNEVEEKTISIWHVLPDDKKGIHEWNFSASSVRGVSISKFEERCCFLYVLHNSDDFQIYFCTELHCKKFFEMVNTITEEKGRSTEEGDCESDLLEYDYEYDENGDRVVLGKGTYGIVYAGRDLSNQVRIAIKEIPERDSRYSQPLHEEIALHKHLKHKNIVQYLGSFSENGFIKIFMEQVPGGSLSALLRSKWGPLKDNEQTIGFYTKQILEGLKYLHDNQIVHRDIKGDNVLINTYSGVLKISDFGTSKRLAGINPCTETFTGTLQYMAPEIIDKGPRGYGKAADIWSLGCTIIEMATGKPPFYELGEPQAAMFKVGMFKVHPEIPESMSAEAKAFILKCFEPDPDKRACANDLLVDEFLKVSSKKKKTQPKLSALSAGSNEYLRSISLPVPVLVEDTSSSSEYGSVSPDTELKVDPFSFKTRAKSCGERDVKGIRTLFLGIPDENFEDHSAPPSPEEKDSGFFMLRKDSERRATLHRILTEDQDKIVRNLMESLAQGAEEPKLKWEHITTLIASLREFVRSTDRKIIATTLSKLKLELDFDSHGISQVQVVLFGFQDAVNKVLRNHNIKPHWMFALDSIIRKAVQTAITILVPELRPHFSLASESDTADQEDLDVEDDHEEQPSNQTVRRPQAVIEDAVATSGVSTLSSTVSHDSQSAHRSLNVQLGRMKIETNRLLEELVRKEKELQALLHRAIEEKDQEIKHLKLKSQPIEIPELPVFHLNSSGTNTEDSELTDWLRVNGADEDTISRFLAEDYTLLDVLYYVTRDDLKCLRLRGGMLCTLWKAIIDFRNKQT

The target in test [14] is Cyclin-dependent kinase 2 (Homo sapiens, UniProt P24941).
In test [15] the target is T2, Myotonin-protein kinase (Homo sapiens) (UniProt Q09013).
T2 sequence (whole entry): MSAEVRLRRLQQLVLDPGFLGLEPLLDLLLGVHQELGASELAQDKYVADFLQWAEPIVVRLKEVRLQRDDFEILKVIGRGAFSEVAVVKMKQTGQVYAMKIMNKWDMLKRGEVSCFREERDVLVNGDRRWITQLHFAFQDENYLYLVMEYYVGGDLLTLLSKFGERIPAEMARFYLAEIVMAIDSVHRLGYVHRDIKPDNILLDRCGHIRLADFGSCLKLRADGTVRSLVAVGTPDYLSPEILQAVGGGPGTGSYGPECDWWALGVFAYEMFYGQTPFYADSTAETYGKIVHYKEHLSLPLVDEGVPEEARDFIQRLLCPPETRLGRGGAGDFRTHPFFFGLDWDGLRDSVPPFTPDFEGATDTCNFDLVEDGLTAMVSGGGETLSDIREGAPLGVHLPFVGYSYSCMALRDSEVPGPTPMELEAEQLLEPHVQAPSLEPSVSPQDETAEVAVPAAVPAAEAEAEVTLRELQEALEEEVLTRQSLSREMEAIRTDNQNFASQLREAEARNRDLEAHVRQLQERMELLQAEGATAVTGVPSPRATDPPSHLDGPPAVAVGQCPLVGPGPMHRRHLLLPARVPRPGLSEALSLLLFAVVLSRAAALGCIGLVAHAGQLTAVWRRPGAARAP

Test [16] concerns the target cAMP-dependent protein kinase catalytic subunit alpha (Homo sapiens) (UniProt P17612).
Test [17] concerns the target Calcium/calmodulin-dependent protein kinase type II subunit beta (Homo sapiens) (UniProt Q13554).
Test [18] addresses Serine/threonine-protein kinase 10 (Homo sapiens) (UniProt O94804).

Structures are written as SMILES.

Chain of Serine/threonine-protein kinase PAK 6 (Homo sapiens) (Q9NQU5 whole entry, looked up): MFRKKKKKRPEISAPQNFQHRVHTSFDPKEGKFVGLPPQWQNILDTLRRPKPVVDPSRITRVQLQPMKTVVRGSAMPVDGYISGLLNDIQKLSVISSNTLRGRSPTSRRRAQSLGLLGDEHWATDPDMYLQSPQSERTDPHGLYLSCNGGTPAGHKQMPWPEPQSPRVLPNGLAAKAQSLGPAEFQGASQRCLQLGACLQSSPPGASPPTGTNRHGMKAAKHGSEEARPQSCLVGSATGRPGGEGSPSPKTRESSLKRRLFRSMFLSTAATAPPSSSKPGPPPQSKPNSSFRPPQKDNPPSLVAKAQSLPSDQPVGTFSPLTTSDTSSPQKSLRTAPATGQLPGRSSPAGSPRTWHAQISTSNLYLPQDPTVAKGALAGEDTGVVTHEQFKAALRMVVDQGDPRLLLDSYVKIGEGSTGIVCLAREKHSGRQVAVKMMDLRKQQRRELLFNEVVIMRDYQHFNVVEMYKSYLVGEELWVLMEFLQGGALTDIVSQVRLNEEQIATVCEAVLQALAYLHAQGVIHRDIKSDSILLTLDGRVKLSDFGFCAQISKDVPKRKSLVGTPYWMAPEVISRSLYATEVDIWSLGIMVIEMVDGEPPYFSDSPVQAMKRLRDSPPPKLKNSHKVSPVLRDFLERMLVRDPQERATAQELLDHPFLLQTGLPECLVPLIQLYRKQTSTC
Chain of Calcium/calmodulin-dependent protein kinase type II subunit alpha (Homo sapiens) (Q9UQM7 whole entry): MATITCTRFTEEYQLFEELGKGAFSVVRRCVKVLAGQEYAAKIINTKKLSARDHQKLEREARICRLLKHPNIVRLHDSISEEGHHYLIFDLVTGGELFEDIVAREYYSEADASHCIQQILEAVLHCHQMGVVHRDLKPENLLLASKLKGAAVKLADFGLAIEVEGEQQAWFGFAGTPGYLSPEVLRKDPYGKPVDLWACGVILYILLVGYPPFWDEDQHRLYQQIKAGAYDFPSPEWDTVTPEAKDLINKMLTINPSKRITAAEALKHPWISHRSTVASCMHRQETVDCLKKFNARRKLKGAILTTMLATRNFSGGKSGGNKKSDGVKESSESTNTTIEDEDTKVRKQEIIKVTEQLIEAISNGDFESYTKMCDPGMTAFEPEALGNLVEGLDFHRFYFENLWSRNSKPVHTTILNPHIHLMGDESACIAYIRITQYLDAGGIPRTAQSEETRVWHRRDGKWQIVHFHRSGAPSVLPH
Chain of Serine/threonine-protein kinase RIO2 (Homo sapiens) (Q9BVS4 whole entry, looked up): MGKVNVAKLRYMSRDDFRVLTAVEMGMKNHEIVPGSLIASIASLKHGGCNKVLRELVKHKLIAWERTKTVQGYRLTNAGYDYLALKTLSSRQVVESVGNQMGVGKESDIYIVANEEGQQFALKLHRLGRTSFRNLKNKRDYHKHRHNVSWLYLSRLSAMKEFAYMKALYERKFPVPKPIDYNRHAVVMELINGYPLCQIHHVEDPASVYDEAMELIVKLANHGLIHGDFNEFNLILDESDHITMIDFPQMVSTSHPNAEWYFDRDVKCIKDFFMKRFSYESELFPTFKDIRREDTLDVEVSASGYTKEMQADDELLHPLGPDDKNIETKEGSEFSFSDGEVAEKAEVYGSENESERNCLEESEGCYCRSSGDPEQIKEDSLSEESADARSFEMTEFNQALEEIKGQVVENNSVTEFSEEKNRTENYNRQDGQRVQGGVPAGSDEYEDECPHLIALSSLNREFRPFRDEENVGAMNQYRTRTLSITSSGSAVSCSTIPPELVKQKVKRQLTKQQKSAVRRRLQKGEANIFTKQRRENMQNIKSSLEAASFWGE
Chain of Serine/threonine-protein kinase 26 (Homo sapiens) (Q9P289 2-416 limits assumed): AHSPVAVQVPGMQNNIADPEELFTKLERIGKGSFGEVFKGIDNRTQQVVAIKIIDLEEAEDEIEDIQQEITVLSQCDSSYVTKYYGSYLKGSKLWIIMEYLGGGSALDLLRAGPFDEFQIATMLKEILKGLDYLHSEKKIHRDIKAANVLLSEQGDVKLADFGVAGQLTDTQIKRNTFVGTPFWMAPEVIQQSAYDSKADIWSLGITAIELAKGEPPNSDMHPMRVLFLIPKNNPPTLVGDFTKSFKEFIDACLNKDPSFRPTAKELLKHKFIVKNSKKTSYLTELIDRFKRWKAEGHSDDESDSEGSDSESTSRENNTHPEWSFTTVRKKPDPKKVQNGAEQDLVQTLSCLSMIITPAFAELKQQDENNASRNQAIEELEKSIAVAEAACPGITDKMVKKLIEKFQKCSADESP
Chain of Serine/threonine-protein kinase 10 (Homo sapiens) (O94804 whole entry, looked up): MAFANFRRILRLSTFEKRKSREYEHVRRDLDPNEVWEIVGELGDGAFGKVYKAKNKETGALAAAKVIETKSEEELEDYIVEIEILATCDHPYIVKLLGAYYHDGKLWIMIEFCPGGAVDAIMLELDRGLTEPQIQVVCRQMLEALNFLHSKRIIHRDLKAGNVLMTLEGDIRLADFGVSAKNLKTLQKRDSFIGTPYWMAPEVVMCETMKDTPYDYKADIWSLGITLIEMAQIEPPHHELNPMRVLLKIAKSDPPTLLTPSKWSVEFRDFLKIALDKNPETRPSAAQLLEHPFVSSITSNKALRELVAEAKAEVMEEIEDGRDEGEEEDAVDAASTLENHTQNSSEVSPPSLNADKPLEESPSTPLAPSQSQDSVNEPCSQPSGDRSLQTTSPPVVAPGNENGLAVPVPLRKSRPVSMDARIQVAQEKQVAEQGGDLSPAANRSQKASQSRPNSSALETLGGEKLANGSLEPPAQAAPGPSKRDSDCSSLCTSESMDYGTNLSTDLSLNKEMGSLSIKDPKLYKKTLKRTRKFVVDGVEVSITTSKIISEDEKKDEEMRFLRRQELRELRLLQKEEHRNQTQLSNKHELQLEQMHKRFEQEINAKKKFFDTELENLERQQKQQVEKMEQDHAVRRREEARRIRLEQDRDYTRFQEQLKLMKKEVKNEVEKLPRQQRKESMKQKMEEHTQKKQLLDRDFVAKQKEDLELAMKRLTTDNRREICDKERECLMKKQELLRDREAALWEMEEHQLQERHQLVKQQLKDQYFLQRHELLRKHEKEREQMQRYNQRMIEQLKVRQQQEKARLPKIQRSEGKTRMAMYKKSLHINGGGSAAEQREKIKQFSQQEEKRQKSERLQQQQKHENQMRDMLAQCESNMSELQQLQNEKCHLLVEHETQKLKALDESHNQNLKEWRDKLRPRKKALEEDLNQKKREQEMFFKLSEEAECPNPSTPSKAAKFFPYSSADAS
Chain of Serine/threonine-protein kinase pim-1 (Homo sapiens) (P11309 whole entry, looked up): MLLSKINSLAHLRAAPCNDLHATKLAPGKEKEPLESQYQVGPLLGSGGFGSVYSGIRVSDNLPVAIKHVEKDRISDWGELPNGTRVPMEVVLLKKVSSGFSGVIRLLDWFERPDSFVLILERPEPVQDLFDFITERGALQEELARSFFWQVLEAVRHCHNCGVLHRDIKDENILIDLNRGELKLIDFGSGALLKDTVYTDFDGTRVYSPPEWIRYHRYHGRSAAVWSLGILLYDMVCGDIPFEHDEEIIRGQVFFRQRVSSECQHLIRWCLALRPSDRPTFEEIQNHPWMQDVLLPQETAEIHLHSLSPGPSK
Chain of Serine/threonine-protein kinase PLK1 (Homo sapiens) (P53350 whole entry): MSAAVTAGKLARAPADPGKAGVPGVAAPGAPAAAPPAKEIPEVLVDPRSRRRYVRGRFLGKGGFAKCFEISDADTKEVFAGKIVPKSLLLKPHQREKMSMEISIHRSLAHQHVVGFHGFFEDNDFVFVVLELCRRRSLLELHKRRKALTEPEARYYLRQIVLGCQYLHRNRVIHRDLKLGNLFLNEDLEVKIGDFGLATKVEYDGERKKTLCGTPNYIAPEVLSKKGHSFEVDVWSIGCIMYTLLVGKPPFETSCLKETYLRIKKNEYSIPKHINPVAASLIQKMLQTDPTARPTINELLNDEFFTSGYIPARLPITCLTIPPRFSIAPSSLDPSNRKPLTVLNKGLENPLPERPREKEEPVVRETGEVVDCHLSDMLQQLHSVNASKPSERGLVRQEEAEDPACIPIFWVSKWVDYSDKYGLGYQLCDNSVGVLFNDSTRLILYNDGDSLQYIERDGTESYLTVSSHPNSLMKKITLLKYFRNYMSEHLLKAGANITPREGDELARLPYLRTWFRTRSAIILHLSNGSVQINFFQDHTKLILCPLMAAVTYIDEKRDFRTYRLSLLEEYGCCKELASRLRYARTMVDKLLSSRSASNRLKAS
Chain of Serine/threonine-protein kinase VRK2 (Homo sapiens) (Q86Y07 whole entry): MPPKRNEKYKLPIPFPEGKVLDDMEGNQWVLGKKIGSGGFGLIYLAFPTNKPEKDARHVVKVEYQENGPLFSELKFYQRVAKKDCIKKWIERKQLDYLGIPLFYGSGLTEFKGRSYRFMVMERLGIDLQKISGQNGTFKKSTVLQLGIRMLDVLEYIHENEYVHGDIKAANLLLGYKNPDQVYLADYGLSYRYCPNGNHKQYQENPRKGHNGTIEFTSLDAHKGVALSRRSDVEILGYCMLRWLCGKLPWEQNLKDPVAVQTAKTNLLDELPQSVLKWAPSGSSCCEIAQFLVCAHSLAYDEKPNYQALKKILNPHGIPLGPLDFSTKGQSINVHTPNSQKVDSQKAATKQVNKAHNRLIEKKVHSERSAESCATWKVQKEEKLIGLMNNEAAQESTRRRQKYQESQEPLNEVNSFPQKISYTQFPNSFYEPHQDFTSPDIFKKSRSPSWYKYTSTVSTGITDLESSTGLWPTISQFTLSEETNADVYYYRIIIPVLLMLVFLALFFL
Chain of Serine/threonine-protein kinase Nek6 (Homo sapiens) (Q9HC98 whole entry): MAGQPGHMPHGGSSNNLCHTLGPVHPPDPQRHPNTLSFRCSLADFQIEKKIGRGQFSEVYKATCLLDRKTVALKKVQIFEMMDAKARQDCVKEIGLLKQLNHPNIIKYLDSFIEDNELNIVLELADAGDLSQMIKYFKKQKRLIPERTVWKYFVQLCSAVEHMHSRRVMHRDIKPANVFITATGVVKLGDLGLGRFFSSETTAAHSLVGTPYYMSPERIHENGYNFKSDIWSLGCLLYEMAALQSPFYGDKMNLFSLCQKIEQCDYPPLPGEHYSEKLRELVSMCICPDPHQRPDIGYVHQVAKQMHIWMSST

`Nc1cc2ncnc(Nc3cccc(Br)c3)c2cc1N`: the ΔTm in test [1] was 1.2 °C; in [2] it was 1.8 °C; in test [3], 4.2 °C; in test [4], -1.4 °C; in test [5] it was 0.3 °C; in test [6] it was 3.4 °C. Moreover, the shift in melting temperature (ΔTm) was 1 °C in test [7]; 1.6 °C in test [8]; -0.2 °C in test [9]; 2.1 °C in test [10]; 0 °C in test [11]; 3.4 °C in test [12]. The shift in melting temperature (ΔTm) in test [13] is 0.4 °C; in [14], 1.4 °C; in test [15] it was 0.1 °C; in test [16] it was 1 °C; in test [17], -0.4 °C; in test [18], 6.1 °C.

Turning to `O=c1c(-c2ccc(O)cc2)coc2cc(O)cc(O)c12`, the ΔTm in test [1] is 0.1 °C; in test [2], 1.6 °C; in [3], 0.8 °C; in test [4], 1.4 °C; in test [5], -0.9 °C; in test [6] it was 0.6 °C. In addition, the thermal shift (ΔTm) was -0.2 °C in test [7]; 0.5 °C in test [8]; 1 °C in [9]; 0.5 °C in [10]; 0.8 °C in test [11]; 3.3 °C in test [12]. Besides, the shift in melting temperature (ΔTm) in test [13] came to 0.6 °C; in test [14], 0.7 °C; in test [15], 2.4 °C; in [16], 2.1 °C; in test [17], 1.2 °C; in test [18], 0 °C.

Consider `Cc1cc2ncc(-c3ccccc3)nc2cc1C`, for which the ΔTm in test [1] was 0.4 °C; in [2], -0.3 °C; in [3], 1.2 °C; in [4] it was 0.7 °C; in [5], 0 °C; in test [6] it was -0.5 °C. Also, the thermal shift (ΔTm) in [7] was 0.5 °C; in [8] it was 0.7 °C; in [9] it was 0.2 °C; in [10], -0.1 °C; in [11] it was 1 °C; in test [12], 0.2 °C. Further, the ΔTm stood at 0.3 °C in test [13]; 0.3 °C in test [14]; 1.2 °C in test [15]; 1.1 °C in test [16]; 0.8 °C in [17]; 1 °C in [18].

Regarding `O=C1NC(=O)C(c2c[nH]c3ccccc23)=C1c1c[nH]c2ccccc12`, the thermal shift (ΔTm) came to 1 °C in test [1]; 2.6 °C in test [2]; 3.7 °C in test [3]; 0.6 °C in [4]; 0.8 °C in test [5]; 0 °C in [6]. In addition, the ΔTm was 2 °C in test [7]; 2.5 °C in [8]; -0.2 °C in test [9]; -0.2 °C in test [10]; 3.3 °C in test [11]; 5.9 °C in test [12]. The ΔTm is 0.2 °C in [13]; 1.5 °C in test [14]; 3.8 °C in [15]; 1.4 °C in test [16]; 1.2 °C in test [17]; 6.2 °C in test [18].

With `CC(C)N(CCO)c1nc(Nc2cccc(Cl)c2)c2ncn(C(C)C)c2n1`, the shift in melting temperature (ΔTm) in [1] is 2.7 °C; in [2], 0.6 °C; in [3], 0.7 °C; in test [4], 3.3 °C; in [5] it was 5.3 °C; in test [6], 0.1 °C. Also, the ΔTm in test [7] was 1.3 °C; in [8] it was 5.8 °C; in [9] it was -0.2 °C; in test [10] it was 0.4 °C; in test [11], 0.5 °C; in test [12], -1.1 °C. Besides, the thermal shift (ΔTm) in test [13] amounted to 0.4 °C; in test [14], 4.5 °C; in [15], 0.2 °C; in [16] it was 1.6 °C; in [17] it was 0.4 °C; in [18], 3.3 °C.

The term ΔTm denotes the change in melting temperature against a reference sample.

Source of the values: ChEMBL document CHEMBL1145498, “A systematic interaction map of validated kinase inhibitors with Ser/Thr kinases” (Proc Natl Acad Sci U S A, 2007).
